Values quoted from earlier work, collected in paper PMC8670146 (Journal of Pharmaceutical and Biomedical Analysis, 2021).

Target: SARS-CoV-2 3CLpro (Severe acute respiratory syndrome coronavirus 2, UniProt P0DTD1)
Details: previous study

O=c1cc(-c2ccccc2)oc2cc(O)c(O)c(O)c12 [compound 2, Baicalein]
in vitro 3CLpro inhibition activity: showed in vitro 3CLpro inhibition activity

O=C(O)[C@H]1O[C@@H](Oc2cc3oc(-c4ccccc4)cc(=O)c3c(O)c2O)[C@H](O)[C@@H](O)[C@@H]1O [compound 1, Baicalin]
in vitro 3CLpro inhibition activity: showed in vitro 3CLpro inhibition activity
